Assay results published in patent publication US4699925A, “Biphenylylpropionic acid derivative and pharmaceutical composition containing the same” (priority 1982, dated 1987).
Where two headings read alike, the source gives them in different places.

Key:
[1] = Gastric ulceration (gastric irritation test); set-up: species or system Wistar male rats; conditions: rat, in vivo, po, read-out: UD50
Protocol: Five Wistar male rats weighing about 150 g. were used as one group. The rats were fasted for 24 hours before the test.
Six hours after orally administration of the present compounds to be tested, there was observed an existence of gastric ulcer by the method of Okabe et al (Ohyoyakuri, 16, 241 to 247 (1978)). The UD50 values were calculated from the ulcer incidence of gastric ulcer by the method of Litchfield-Wilcoxon.

[2] = system: carrageenan-induced edema; test: Inhibitory effect on carrageenan-induced edema; assay type: in vivo, Wistar male rats; conditions: Rattus norvegicus
Protocol: Five Wistar male rats weighing about 150 g. were used as one group. A 1% dispersion of carrageenan was injected intracutaneously into the foot pad of the right hind foot in a dose of 0.1 ml./rat. The compounds to be tested were orally administered to the rats fasted for 15 hours one hour before the carrageenan injection, or intravenously administered 2 hours […] the carrageenan injection. The volume of the foot subjected to the injection was measured by a mercury plethysmography 3 hours after the carrageenan injection on the test by oral route or 2 hours after the carrageenan injection on the test by intravenous route, and the carrageenan-induced edema was estimated from the obtained measurements.

Acute toxicity = test: Acute toxicity; set-up: species or system male SLC-ddY mice; conditions: mouse, in vivo, po
[3] = Hydrolysis of FP derivatives in rat plasma; assay type: in vitro ADME; conditions: Table 4; rat plasma (Compound Nos. 8 to 13), 37° C., one hour; read-out: Hydrolyzing rate
Protocol: (§1) Each reaction mixture was incubated at 37° C. for one hour.
(§2) The free FP formed by esterase in the plasma was extracted with benzene. After treating the extract with N,O-bis(trimethylsilylacetamide) for trimethylsilylation, the obtained material was determined by gas-liquid chromatography.

[4] = Hydrolysis of FP derivatives in human plasma; assay type: in vitro ADME; conditions: 37° C., one hour, read-out: Hydrolyzing rate
Protocol: as §1, §2

[5] = Table 1, orally in rats, 50% ulcerative dose
[6] = Table 3, rats, orally, six hours after administration
[7] = Table 1, orally in mice, 50% lethal dose
[8] = Table 5, mice, orally, observation for 2 weeks
[9] = human, plasma, Table 1, human plasma
[10] = human, plasma, Table 4, human plasma (Compound Nos. 1 to 7)

| Compound | TD50 at 6 h [1, 5] | TD50 at 6 h [1, 6] | ED50 ([2]; po, 1 h, read-out: ED50 p.o.) | ED50 ([2]; po, read-out: ED50 p.o.) | LD50 at 336 h (Acute toxicity; [7]) | LD50 at 336 h (Acute toxicity; [8]) | metabolised at 1 h [3] | ED50 ([2]; iv, 2 h, read-out: ED50 i.v.) | metabolised at 1 h [4, 9] | metabolised at 1 h [4, 10] | ED50 ([2]; po, 1 h, Table 1, rats, orally, one hour before carrageenan injection, read-out: ED50 p.o.) | ED50 ([2]; po, Table 2, rats, orally one hour before carrageenan injection, measured 3 hours after carrageenan, read-out: ED50 p.o.) | metabolised at 1 h ([4]; Table 4, human plasma (Compound Nos. 1 to 7)) |
| --- | --- | --- | --- | --- | --- | --- | --- | --- | --- | --- | --- | --- | --- |
| CC(C)=CC(=O)OCCOC(=O)C(C)c1ccc(-c2ccccc2)c(F)c1 (stereo not shown) [Compound No. 11, 2-(3,3-dimethylacryloyloxy)ethyl 2-(2-fluoro-4-biphenylyl)propionate] | 3 mg/kg | 3 mg/kg | 1 mg/kg | 1 mg/kg | 880 mg/kg | 880 mg/kg | 99.8% | – | – | – | – | – | – |
| CC(C)=CC(=O)OCOC(=O)C(C)c1ccc(-c2ccccc2)c(F)c1 (stereo not shown) [Compound No. 5, 3,3-dimethylacryloyloxymethyl 2-(2-fluoro-4-biphenylyl)propionate] | 2 mg/kg | 2 mg/kg | 0.5 mg/kg | 0.5 mg/kg | 900 mg/kg | 900 mg/kg | – | 0.06 mg/kg | 64.8% | 115% | – | – | – |
| CC(C(=O)OCOC(=O)C(C)(C)C)c1ccc(-c2ccccc2)c(F)c1 (stereo not shown) [Compound No. 7, pivaloyloxymethyl 2-(2-fluoro-4-biphenylyl)propionate] | 2.5 mg/kg | 2.5 mg/kg | 0.6 mg/kg | 0.6 mg/kg | 840 mg/kg | 840 mg/kg | – | 0.1 mg/kg | 70.3% | 70.3% | – | – | – |
| CC(=O)OCCOC(=O)C(C)c1ccc(-c2ccccc2)c(F)c1 (stereo not shown) [Compound No. 8, 2-(acetoxy)ethyl 2-(2-fluoro-4-biphenylyl)propionate] | 2 mg/kg | 2 mg/kg | 0.7 mg/kg | 0.7 mg/kg | 650 mg/kg | 650 mg/kg | 101% | – | – | – | – | – | – |
| C/C=C/C(=O)OCCOC(=O)C(C)c1ccc(-c2ccccc2)c(F)c1 (stereo not shown) [Compound No. 10, 2-(crotonoyloxy)ethyl 2-(2-fluoro-4-biphenylyl)propionate] | 3 mg/kg | 3 mg/kg | 0.9 mg/kg | 0.9 mg/kg | 800 mg/kg | 800 mg/kg | 99.5% | – | – | – | – | – | – |
| CC(C)=CCCC(C)=CC(=O)OCCOC(=O)C(C)c1ccc(-c2ccccc2)c(F)c1 (stereo not shown) [Compound No. 13, 2-(3,7-dimethyl-2,6-octadienoyloxy)ethyl 2-(2-fluoro-4-biphenylyl)propionate] | 3 mg/kg | 3 mg/kg | 0.9 mg/kg | 0.9 mg/kg | 750 mg/kg | 750 mg/kg | 101% | – | – | – | – | – | – |
| CC(C(=O)O)c1ccc(-c2ccccc2)c(F)c1 (stereo not shown) [FP, 2-(2-fluoro-4-biphenylyl)propionic acid, reference compound] | 1 mg/kg | 1 mg/kg | 0.8 mg/kg | 0.8 mg/kg | 440 mg/kg | 440 mg/kg | – | 0.3 mg/kg | – | – | – | – | – |
| COc1ccc2c(c1)c(CC(=O)O)c(C)n2C(=O)c1ccc(Cl)cc1 [indomethacin, reference compound] | 5 mg/kg | 5 mg/kg | 5.5 mg/kg | 5.5 mg/kg | 14 mg/kg | 14 mg/kg | – | 1.25 mg/kg | – | – | – | – | – |
| COc1ccc2c(c1)c(CC(=O)OCC(=O)O)c(C)n2C(=O)c1ccc(Cl)cc1 [acemethacin, reference compound] | – | – | – | – | 18 mg/kg | 18 mg/kg | – | – | – | – | 8.3 mg/kg | 8.3 mg/kg | 4.2% |
| CC(=O)OCOC(=O)C(C)c1ccc(-c2ccccc2)c(F)c1 (stereo not shown) [Compound No. 1, acetoxymethyl 2-(2-fluoro-4-biphenylyl)propionate] | 3.7 mg/kg | 3.6 mg/kg | 0.5 mg/kg | 0.5 mg/kg | 880 mg/kg | 880 mg/kg | – | 0.08 mg/kg | 97.5% | 97.5% | – | – | – |
| CC(C)C(=O)OCOC(=O)C(C)c1ccc(-c2ccccc2)c(F)c1 (stereo not shown) [Compound No. 3, isobutyryloxymethyl 2-(2-fluoro-4-biphenylyl)propionate] | 2 mg/kg | 2 mg/kg | 0.6 mg/kg | 0.6 mg/kg | 600 mg/kg | 600 mg/kg | – | 0.1 mg/kg | 86.3% | 86.3% | – | – | – |
| CCCCCCCCCCCCCCCC(=O)OCOC(=O)C(C)c1ccc(-c2ccccc2)c(F)c1 (stereo not shown) [Compound No. 6, palmitoyloxymethyl 2-(2-fluoro-4-biphenylyl)propionate] | 5 mg/kg | 5 mg/kg | 1.5 mg/kg | 1.5 mg/kg | 1000 mg/kg | > 1000 mg/kg | – | 0.5 mg/kg | 3.8% | 3.8% | – | – | – |
| C/C=C/C(=O)OCOC(=O)C(C)c1ccc(-c2ccccc2)c(F)c1 (stereo not shown) [Compound No. 4, crotonoyloxymethyl 2-(2-fluoro-4-biphenylyl)propionate] | 2 mg/kg | 2 mg/kg | 0.6 mg/kg | 0.6 mg/kg | 600 mg/kg | 600 mg/kg | – | 0.08 mg/kg | 81.4% | 81.4% | – | – | – |
| CC=CC=CC(=O)OCCOC(=O)C(C)c1ccc(-c2ccccc2)c(F)c1 (stereo not shown) [Compound No. 12, 2-(2,4-hexadienoyloxy)ethyl 2-(2-fluoro-4-biphenylyl)propionate] | 3 mg/kg | 3 mg/kg | 0.9 mg/kg | 0.9 mg/kg | 750 mg/kg | 750 mg/kg | 100% | – | – | – | – | – | – |
| CCC(=O)OCCOC(=O)C(C)c1ccc(-c2ccccc2)c(F)c1 (stereo not shown) [Compound No. 9, 2-(propionyloxy)ethyl 2-(2-fluoro-4-biphenylyl)propionate] | 2 mg/kg | 2 mg/kg | 0.7 mg/kg | 0.7 mg/kg | 700 mg/kg | 700 mg/kg | 98.9% | – | – | – | – | – | – |
| CCC(=O)OCOC(=O)C(C)c1ccc(-c2ccccc2)c(F)c1 (stereo not shown) [Compound No. 2, propionyloxymethyl 2-(2-fluoro-4-biphenylyl)propionate] | 2.5 mg/kg | 2.5 mg/kg | 0.5 mg/kg | 0.5 mg/kg | 750 mg/kg | 750 mg/kg | – | 0.07 mg/kg | 94.6% | 94.6% | – | – | – |
